Test results from PubChem BioAssay (NCI).
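GI50 is the concentration that inhibits growth by half. The concentration for full growth arrest is given as TGI.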

Assays:
Test in all cases: DTP human tumour cell line panel, 384-well format
NCI-H226 lung = test system: NCI-H226 lung
COLO 205 colon = test system: COLO 205 colon
UO-31 renal = test system: UO-31 renal
EKVX NSCLC = test system: EKVX NSCLC
LOX IMVI melanoma = test system: LOX IMVI melanoma
SK-OV-3 ovarian = test system: SK-OV-3 ovarian
T-47D breast = test system: T-47D breast
OVCAR-8 ovarian = test system: OVCAR-8 ovarian
SK-MEL-5 melanoma = test system: SK-MEL-5 melanoma
IGROV1 ovarian = test system: IGROV1 ovarian
HCC-2998 colon = test system: HCC-2998 colon
SF-539 CNS = test system: SF-539 CNS
SN12C renal = test system: SN12C renal
U251 glioblastoma = test system: U251 glioblastoma
NCI/ADR-RES ovarian = test system: NCI/ADR-RES ovarian
HCT-15 colon = test system: HCT-15 colon
RPMI-8226 leukemia = test system: RPMI-8226 leukemia
NCI-H522 lung = test system: NCI-H522 lung
HCT-116 colon = test system: HCT-116 colon
MDA-MB-435 melanoma = test system: MDA-MB-435 melanoma
OVCAR-3 ovarian = test system: OVCAR-3 ovarian
A549 NSCLC = test system: A549 NSCLC
SK-MEL-2 melanoma = test system: SK-MEL-2 melanoma
HOP-92 NSCLC = test system: HOP-92 NSCLC
MOLT-4 leukemia = test system: MOLT-4 leukemia
SNB-75 CNS = test system: SNB-75 CNS
DU-145 prostate = test system: DU-145 prostate
ACHN renal = test system: ACHN renal
OVCAR-5 ovarian = test system: OVCAR-5 ovarian
SK-MEL-28 melanoma = test system: SK-MEL-28 melanoma
MCF7 breast = test system: MCF7 breast
786-0 renal = test system: 786-0 renal
KM12 colon = test system: KM12 colon
SR leukemia = test system: SR leukemia
M14 melanoma = test system: M14 melanoma
NCI-H322M lung = test system: NCI-H322M lung
A498 renal = test system: A498 renal
HL-60(TB) leukemia = test system: HL-60(TB) leukemia
UACC-257 melanoma = test system: UACC-257 melanoma
CCRF-CEM leukemia = test system: CCRF-CEM leukemia
K-562 leukemia = test system: K-562 leukemia
PC-3 prostate = test system: PC-3 prostate
MDA-MB-468 breast = test system: MDA-MB-468 breast
HT29 colon = test system: HT29 colon
MDA-MB-231 breast = test system: MDA-MB-231 breast
RXF 393 renal = test system: RXF 393 renal
UACC-62 melanoma = test system: UACC-62 melanoma

CS(=O)(=O)N1CCN(Cc2cc3nc(-c4cccc5[nH]ncc45)nc(N4CCOCC4)c3s2)CC1 showed a GI50 (NCI-H226 lung) of 0.648 µM, a TGI (NCI-H226 lung) of 4.9 µM and a GI50 (COLO 205 colon) of 0.48 µM. The TGI (COLO 205 colon) was 34.2 µM, the GI50 (UO-31 renal) was 0.478 µM and the TGI (UO-31 renal) was 9.8 µM. It also gave a GI50 (EKVX NSCLC) of 0.185 µM, a TGI (EKVX NSCLC) of 2.7 µM and a GI50 (LOX IMVI melanoma) of 0.827 µM. The TGI (LOX IMVI melanoma) was 11.7 µM, the GI50 (SK-OV-3 ovarian) was 0.169 µM and the TGI (SK-OV-3 ovarian) was 1.62 µM. The GI50 (T-47D breast) was 0.0494 µM, the TGI (T-47D breast) was 0.341 µM and the GI50 (OVCAR-8 ovarian) was 1.11 µM. For the same molecule, the TGI (OVCAR-8 ovarian) was > 100 µM, the GI50 (SK-MEL-5 melanoma) was 0.795 µM and the TGI (SK-MEL-5 melanoma) was 8.53 µM. The GI50 (IGROV1 ovarian) was 0.0386 µM, the TGI (IGROV1 ovarian) was 0.215 µM and the GI50 (HCC-2998 colon) was 0.723 µM. For the same molecule, the TGI (HCC-2998 colon) was 14.3 µM, the GI50 (SF-539 CNS) was 0.446 µM and the TGI (SF-539 CNS) was > 100 µM. It also gave a GI50 (SN12C renal) of 0.328 µM, a TGI (SN12C renal) of 67.2 µM and a GI50 (U251 glioblastoma) of 2.34 µM. For the same molecule, the TGI (U251 glioblastoma) was > 100 µM, the GI50 (NCI/ADR-RES ovarian) was 1.7 µM and the TGI (NCI/ADR-RES ovarian) was 49.9 µM. The GI50 (HCT-15 colon) was 0.708 µM, the TGI (HCT-15 colon) was 24.1 µM and the GI50 (RPMI-8226 leukemia) was 0.393 µM. It also gave a TGI (RPMI-8226 leukemia) of 1.67 µM, a GI50 (NCI-H522 lung) of 0.391 µM and a TGI (NCI-H522 lung) of 7.58 µM. The GI50 (HCT-116 colon) was 1.93 µM, the TGI (HCT-116 colon) was > 100 µM and the GI50 (MDA-MB-435 melanoma) was 1.18 µM. It also gave a TGI (MDA-MB-435 melanoma) of 11.9 µM, a GI50 (OVCAR-3 ovarian) of 0.28 µM and a TGI (OVCAR-3 ovarian) of 4.39 µM. For the same molecule, the GI50 (A549 NSCLC) was 0.533 µM, the TGI (A549 NSCLC) was > 100 µM and the GI50 (SK-MEL-2 melanoma) was 7.04 µM. For the same molecule, the TGI (SK-MEL-2 melanoma) was > 100 µM, the GI50 (HOP-92 NSCLC) was 0.202 µM and the TGI (HOP-92 NSCLC) was 1.49 µM. It also gave a GI50 (MOLT-4 leukemia) of 0.0822 µM, a TGI (MOLT-4 leukemia) of 0.363 µM and a GI50 (SNB-75 CNS) of 0.102 µM. For the same molecule, the TGI (SNB-75 CNS) was 0.533 µM, the GI50 (DU-145 prostate) was 0.581 µM and the TGI (DU-145 prostate) was > 100 µM. For the same molecule, the GI50 (ACHN renal) was 0.46 µM, the TGI (ACHN renal) was 6.92 µM and the GI50 (OVCAR-5 ovarian) was 0.553 µM. For the same molecule, the TGI (OVCAR-5 ovarian) was > 100 µM, the GI50 (SK-MEL-28 melanoma) was 0.202 µM and the TGI (SK-MEL-28 melanoma) was 4.18 µM. It also gave a GI50 (MCF7 breast) of 0.0582 µM, a TGI (MCF7 breast) of 16.3 µM and a GI50 ([…]-0 renal) of 0.492 µM. For the same molecule, the TGI (786-0 renal) was 2.77 µM, the GI50 (KM12 colon) was 0.888 µM and the TGI (KM12 colon) was > 100 µM. For the same molecule, the GI50 (SR leukemia) was 1.53 µM, the TGI (SR leukemia) was 4.01 µM and the GI50 (M14 melanoma) was 0.916 µM. For the same molecule, the TGI (M14 melanoma) was > 100 µM, the GI50 (NCI-H322M lung) was 0.442 µM and the TGI (NCI-H322M lung) was 5.32 µM. For the same molecule, the GI50 (A498 renal) was 0.29 µM, the TGI (A498 renal) was 1.59 µM and the GI50 (HL-60(TB) leukemia) was 0.0463 µM. The TGI (HL-60(TB) leukemia) was 0.593 µM, the GI50 (UACC-257 melanoma) was 2.33 µM and the TGI (UACC-257 melanoma) was > 100 µM. For the same molecule, the GI50 (CCRF-CEM leukemia) was 1.8 µM, the TGI (CCRF-CEM leukemia) was 6.98 µM and the GI50 (K-562 leukemia) was 5.48 µM. For the same molecule, the TGI (K-562 leukemia) was > 100 µM, the GI50 (PC-3 prostate) was 0.165 µM and the TGI (PC-3 prostate) was 7.73 µM. For the same molecule, the GI50 (MDA-MB-468 breast) was 0.127 µM, the TGI (MDA-MB-468 breast) was 0.685 µM and the GI50 (HT29 colon) was 0.744 µM. For the same molecule, the TGI (HT29 colon) was 14.7 µM, the GI50 (MDA-MB-231 breast) was 2.13 µM and the TGI (MDA-MB-231 breast) was > 100 µM. For the same molecule, the GI50 (RXF 393 renal) was 0.152 µM, the TGI (RXF 393 renal) was 0.638 µM and the GI50 (UACC-62 melanoma) was 0.238 µM. For the same molecule, the TGI (UACC-62 melanoma) was 1.93 µM.
